What was measured:
[1] = target: T1, Ectonucleotide pyrophosphatase/phosphodiesterase family member 1 (Homo sapiens) (UniProt P22413); experiment: Inhibition of human GFP-fused NPP1 expressed in COS7 cells at 1 uM using pnp-TMP as substrate after 60 mins relative to control; type: cell-based
T1 sequence (whole entry): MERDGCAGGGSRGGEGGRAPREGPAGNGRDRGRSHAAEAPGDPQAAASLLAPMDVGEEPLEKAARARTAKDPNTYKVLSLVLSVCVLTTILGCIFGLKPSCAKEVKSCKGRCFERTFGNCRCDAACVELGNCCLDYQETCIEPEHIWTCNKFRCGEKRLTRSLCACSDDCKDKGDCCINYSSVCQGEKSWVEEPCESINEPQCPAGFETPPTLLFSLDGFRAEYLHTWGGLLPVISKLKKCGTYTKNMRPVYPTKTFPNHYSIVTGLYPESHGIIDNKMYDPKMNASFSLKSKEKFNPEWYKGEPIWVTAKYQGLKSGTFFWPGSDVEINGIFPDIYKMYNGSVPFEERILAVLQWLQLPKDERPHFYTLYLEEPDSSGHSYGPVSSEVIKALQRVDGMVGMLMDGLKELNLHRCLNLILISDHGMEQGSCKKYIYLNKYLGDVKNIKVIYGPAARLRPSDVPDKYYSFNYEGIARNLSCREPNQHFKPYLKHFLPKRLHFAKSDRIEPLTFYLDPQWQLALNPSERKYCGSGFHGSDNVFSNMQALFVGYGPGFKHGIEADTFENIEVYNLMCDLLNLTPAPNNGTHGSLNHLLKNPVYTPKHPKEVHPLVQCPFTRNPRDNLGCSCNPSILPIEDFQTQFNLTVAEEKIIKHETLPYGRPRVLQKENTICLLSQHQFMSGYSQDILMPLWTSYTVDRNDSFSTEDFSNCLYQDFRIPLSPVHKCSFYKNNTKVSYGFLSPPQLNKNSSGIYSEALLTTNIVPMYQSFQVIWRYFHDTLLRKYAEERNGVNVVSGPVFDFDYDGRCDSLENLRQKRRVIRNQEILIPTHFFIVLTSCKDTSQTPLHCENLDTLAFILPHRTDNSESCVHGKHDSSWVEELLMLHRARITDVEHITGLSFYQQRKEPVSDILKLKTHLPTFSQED

[2] = target: T2, Ectonucleotide pyrophosphatase/phosphodiesterase family member 1 (Homo sapiens, UniProt P22413); experiment: Inhibition of human GFP-fused NPP1 expressed in COS7 cells using pnp-TMP as substrate after 60 mins; type: cell-based
T2 sequence (P22413 whole entry): T1 sequence (whole entry)

Row | inhibition [1] [%] | Ki [2] [µM] | Compound
1 | 48 | 1.31 | CCOc1cc2c(Cl)ncnc2cc1OC
2 | 74 | 0.297 | COC(=O)c1cccc(/C=C/c2nc(N3CCC(CCNS(N)(=O)=O)CC3)c3cc(OC)c(OC)cc3n2)c1
3 | 11 |  | COc1cc2ncnc(N3CCC(CO)CC3)c2cc1OC
4 | 45 | 0.699 | COc1cc2ncnc(N3CCC(CCN)CC3)c2cc1OC
5 | < 1 |  | CCCCOc1cc2c(Cl)ncnc2cc1OC
6 | 86 | 0.058 | COc1cc2nc(/C=C/c3cccnc3)nc(N3CCC(CCNS(N)(=O)=O)CC3)c2cc1OC
7 | 88 | 0.101 | COc1cccc(/C=C/c2nc(N3CCC(CCNS(N)(=O)=O)CC3)c3cc(OC)c(OC)cc3n2)c1
8 | 15 | 7.97 | COc1cc2ncnc(Cl)c2cc1OC/C=C/S(F)(F)(F)(F)F
9 | 85 | 0.071 | COc1cc2nc(/C=C/c3ccccn3)nc(N3CCC(CCNS(N)(=O)=O)CC3)c2cc1OC
10 | 14 | 3.58 | COc1cc2nc(/C=C/c3cccc(F)c3)nc(N3CCC(CCNS(N)(=O)=O)CC3)c2cc1OC
11 | 66 | 0.231 | COc1ccc(/C=C/c2nc(N3CCC(CCNS(N)(=O)=O)CC3)c3cc(OC)c(OC)cc3n2)cc1
12 | 71 | 0.242 | COc1ccc2ncnc(N3CCC(CCNS(N)(=O)=O)CC3)c2c1
13 | 78 | 0.211 | COc1cc2nc(/C=C/c3ccccc3F)nc(N3CCC(CCNS(N)(=O)=O)CC3)c2cc1OC
14 | 74 | 0.302 | COc1ccccc1/C=C/c1nc(N2CCC(CCNS(N)(=O)=O)CC2)c2cc(OC)c(OC)cc2n1
15 | < 1 |  | COc1cc2ncnc(N3CCC(CC#N)CC3)c2cc1OC
16 | 79 | 0.09 | COc1cc2nc(CC3OC(=O)c4ccccc43)nc(N3CCC(CCNS(N)(=O)=O)CC3)c2cc1OC (stereo not given)
17 | 12 |  | COc1cc2ncnc(N3CCC(CCNS(C)(=O)=O)CC3)c2cc1OC
18 | 70 | 0.465 | COc1cc2nc(/C=C/c3ccc(F)cc3)nc(N3CCC(CCNS(N)(=O)=O)CC3)c2cc1OC
19 | 43 | 1.34 | COC(=O)c1ccc(/C=C/c2nc(N3CCC(CCNS(N)(=O)=O)CC3)c3cc(OC)c(OC)cc3n2)cc1
20 | 12 |  | CCOC(=O)C1CCN(c2ncnc3cc(OC)c(OC)cc23)CC1
21 | 29 | 3.24 | CCCOc1cc2c(Cl)ncnc2cc1OC
22 | 69 | 0.366 | COc1cc2nc(CCc3ccc(F)cc3)nc(N3CCC(CCNS(N)(=O)=O)CC3)c2cc1OC
23 | 33 | 1.84 | COc1cc2nc(/C=C/c3ccccc3)nc(N3CCC(CCNS(N)(=O)=O)CC3)c2cc1OC
24 | 79 | 0.218 | COc1cc2nc(/C=C/c3ccncc3)nc(N3CCC(CCNS(N)(=O)=O)CC3)c2cc1OC
25 | 87 |  | COc1cc2ncnc(N3CCC(CCNS(N)(=O)=O)CC3)c2cc1OC
26 | 9 |  | COc1cc2ncnc(N3CCC(CCNC(C)=O)CC3)c2cc1OC
